The source of these data is US11214540B2, “Compositions for treating neurodegenerative diseases” (COGNITION THERAPEUTICS, INC., priority 2017, dated 2022).

Data set [1] concerns Abeta oligomer-induced membrane trafficking deficits in primary hippocampal neurons. Description: Membrane Trafficking/Exocytosis (MTT) assay, Abeta oligomer effect on neurons.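 As to EC50 Abeta: compound potency for inhibiting the Abeta oligomer effect on exocytosis.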 The format is cell-based, rat. The protocol:
Compounds according to any embodiment described herein, were tested for their ability to inhibit an amyloid beta effect on the cells. The compounds generally were able to inhibit the amyloid beta effect as measured by a membrane trafficking/exocytosis assay (MTT assay). The rationale for this assay was as follows:
The present exocytosis assay was adapted for use with mature primary neuronal cultures grown for 3 weeks in vitro. See WO 2011/106785, which is incorporated herein by reference in its entirety. Abeta oligomers cause a dose-dependent decrease in the amount of intracellular vesicles (puncta) filled with reduced purple formazan as measured via image processing using a Cellomics VTI automated microscopy system. […] Increasing the amount of Abeta oligomers eventually results in overt toxicity. Thus, the concentration of neuroactive Abeta oligomers used in the assay is much lower than that causing cell death. […] When configured in this manner, the assay is able to detect compounds that inhibit nonlethal effects of Abeta oligomer whether these compounds act via disruption of oligomers, inhibition of oligomer binding to neurons, or counteraction of signal transduction mechanisms of action initiated by oligomer binding.
Primary hippocampal neurons from E18 Sprague-Dawley rat embryos were plated at optimized concentrations in 384 well plates in NB media (Invitrogen). Neurons were maintained in cultures for 3 weeks, with twice weekly feeding of NB media with N2 supplement (Invitrogen).
A test compound was added to cells at concentrations ranging from 100 uM to 0.001 nM followed by addition of vehicle or Abeta oligomer preparations (3 μM total Abeta protein concentration), and incubated for 1 to 24 hr at 37° C. in 5% CO2. MTT reagent (3-(4,5-dimethylthizaol-2yl)-2,5diphenyl tetrazolium bromide) (Roche Molecular Biochemicals) was reconstituted in phosphate buffered saline to 5 mg/mL. 10 μL of MTT labeling reagent is added to each well and incubated at 37° C. for 1 h, then imaged. Exocytosis was assessed by automated microscopy and image processing to quantify the amount of endocytosed and exocytosed formazan.
Each assay plate was formatted so that compounds are tested with and without Abeta oligomer on each plate. This design eliminates toxic or metabolically active compounds early on in the screening cascade (at the level of the primary screen). Reduced formazan was first visible in intracellular vesicles. Eventual formazan exocytosis was accelerated via Abeta oligomers.
Human amyloid peptide 1-42 was obtained from a number of commercial vendors such as California Peptide, with lot-choice contingent upon quality control analysis. Quality controls of oligomer preparations consist of Westerns to determine oligomer size ranges and relative concentrations, and the MTT assay to confirm exocytosis acceleration without toxicity. Toxicity was monitored in each image-based assay via quantification of nuclear morphology visualized with the DNA binding blue dye DAPI (Invitrogen). Nuclei that are fragmented are considered to be in late stage apoptosis (Majno and Joris '95) and the test would be rejected. Peptide lots producing unusual peptide size ranges or significant toxicity at a standard 1.5 μM concentration on neurons would also be rejected.
Data handling and analysis were accomplished by Cellomics VTI image analysis software and STORE automated database software. Because of the low dynamic range and neuronal well-to-well variability after three weeks in culture, statistical comparisons are made via pairwise Tukey-Kramer analysis to determine the significance of the separation between compound+Abeta oligomers from Abeta alone, and between compound alone from vehicle. The ability of mature primary neurons to more closely approximate the electrophysiologically mediated signal transduction network of the adult brain justifies this screening strategy. […]

A short description of another data set: log P. Format: physicochemical. From the text:
The term “log P” refers to the partition coefficient of a compound. The partition coefficient is the ratio of concentrations of un-ionized compound in each of two solution phases, for example, octanol and water. To measure the partition coefficient of ionizable solute compounds, the pH of the aqueous phase is adjusted such that the predominant form of the compound is un-ionized. The logarithm of the ratio of concentrations of the un-ionized solute compound in the solvents is called log P. The log P is a measure of lipophilicity. For example, log Poct/wat=log([solute]octanol/[solute]un-ionized,water).
Combined Results for particular compounds described herein, with respect to log P, membrane trafficking (uM), sigma-2 receptor affinity, sigma-1 receptor affinity microsomal stability in mouse liver microsomes (MLM) (t1/2, min), t1/2 normalized to CT)10914 and in vitro toxicity potassium channel hERG (IC50, nM) are provided in Table 1: […]

[2] abbreviates: membrane trafficking, read-out: EC50 Abeta.

Like-named read-outs stand apart in the source and are kept apart here.

Take “Synthetic Abeta oligomers: Abeta 1-42 oligomers made according to published methods, used as positive controls [reference compound]”: the EC50 in data set [1] (Abeta oligomers dosed alone on neurons, read-out: EC50 in the membrane trafficking assay) is 0.82 µM. With `CC(C)=CC(CC(C)(C)c1ccc(Cl)cc1)N1CCN(C(=O)C2CC2)CC1` (centres unmarked) [Compound 152], the concentration giving a half-maximal response (EC50) in data set [1] (setting [2]) is 0.26 µM. Also, in “log P”, the “log P” value came to 5.11.

As for `CC(C)=CC(CC(C)(C)c1ccc(F)cc1)N1CCC(N2CCCCC2)CC1` (centres unmarked) [Compound 133], in data set [1] (setting [2]), the EC50 stood at 2.2 µM. In addition, in “log P”, the “log P” value was found to be 5.68. The like results for `COCCCC1CCN([C@@H](C=C(C)C)CC(C)(C)c2ccc(Cl)cc2)CC1` [Compound 292] were, in that order, 1.6 µM and 6.49. As for `CC(C)=CC(CC(C)(C)c1ccc(Cl)cc1)N1CCC(N2CCOCC2)CC1` (centres unmarked) [Compound 138], in data set [1] (setting [2]), the concentration giving a half-maximal response (EC50) turned out to be 0.45 µM. Further, the log partition coefficient (log P) in “log P” was determined as 5.07. On to `CC(C)=CC(CC(C)(C)c1ccc(C(F)(F)F)cc1)N1CCC(Oc2ccccc2)CC1` (centres unmarked) [Compound 128], for which, in data set [1] (setting [2]), the EC50 was 20 µM. Also, the lipophilicity (log P) in “log P” is 7.19. On the same counts, the results for `CC(C)=CC(CC(C)(C)c1ccc(Cl)cc1)N1CCC(OC(C)C)CC1` (centres unmarked) [Compound 158] are 2.88 µM and 5.99. In the case of `COc1cc(CCC(C)NCc2ccc(C(F)(F)F)cc2)ccc1O` (centres unmarked) [4-(3-(4-(trifluoromethyl)benzylamino)butyl)-2-methoxyphenol, reference compound], in data set [1] (AD brain-derived Abeta oligomers), the “effect on membrane trafficking deficits induced by AD brain-derived Abeta oligomers” value is recorded as “eliminates the membrane trafficking deficits”. For the same molecule, the “effect on trafficking when dosed in the absence of Abeta” value in data set [1] (substance alone, no Abeta oligomer) is “does not affect trafficking”.

In the case of `COCCCC1CCN(C(C=C(C)C)CC(C)(C)c2ccc(N3CCOCC3)cc2)CC1` (centres unmarked) [Compound 140], in data set [1] (setting [2]), the concentration giving a half-maximal response (EC50) is 20 µM. Further, the log partition coefficient (log P) in the data set “log P” stood at 5.78.

Turning to `COc1cc(CCC(C)(C)N2Cc3cccc(C(=O)N4CCN(C(=O)Oc5ccccc5)CC4)c3C2)ccc1O` [Compound 256], the concentration for a half-maximal effect (EC50) in data set [1] (setting [2]) turned out to be 15 µM. In “log P”, the “log P” value is given as 5.01. On the same counts, the results for `CC(C)=CC(CC(C)(C)c1ccc(F)cc1)N1CCC(Oc2ccccc2)CC1` (centres unmarked) [Compound 124] are 0.2 µM and 6.45. The like results for `CC(C)=CC(CC(C)(C)c1ccc(C(F)(F)F)cc1)N1CCN(S(C)(=O)=O)CC1` (centres unmarked) [Compound 161] were, in that order, 0.27 µM and 4.1. On to `CC(C)=CC(CC(C)(C)c1ccc(F)cc1)N1CCC(N2CCCC2)CC1` (centres unmarked) [Compound 125], for which the EC50 in data set [1] (setting [2]) was determined as 0.25 µM. Moreover, the lipophilicity (log P) in “log P” is recorded as 5.23.

For the molecule `CC(C)=CC(CC(C)(C)c1ccc(Cl)cc1)N1CCC(N2CCCCC2)CC1` (centres unmarked) [Compound 146], the EC50 in data set [1] (setting [2]) worked out at 0.025 µM. The “log P” value in “log P” is reported as 6.14. On the same counts, the results for `CC(C)=C[C@H](CC(C)(C)c1ccc(C(F)(F)F)cc1)N1CCC(C2CCOCC2)CC1` [Compound 261] are 0.73 µM and 6.58. Regarding `CC(C)=CC(CC(C)(C)c1ccc(N2CCOCC2)cc1)N1CCC(O)CC1` (centres unmarked) [Compound 150], the EC50 in data set [1] (setting [2]) stood at 20 µM. For the same molecule, the “log P” value in “log P” worked out at 3.86. In the case of `CC(C)=CC(CC(C)(C)c1ccc(C(F)(F)F)cc1)N1CCC(F)CC1` (centres unmarked) [Compound 141], in data set [1] (setting [2]), the EC50 is 1.6 µM. Also, the lipophilicity (log P) in the data set “log P” worked out at 5.74. On to `COCCOCCC1CCN(C(C=C(C)C)CC(C)(C)c2ccc(F)cc2)CC1` (centres unmarked) [Compound 163], for which the EC50 in data set [1] (setting [2]) was 15 µM. In addition, the “log P” value in “log P” came to 5.54. On the same counts, the results for `CC(C)=CC(CC(C)(C)c1ccc(F)cc1)N1CCN(C(=O)C2CC2)CC1` (centres unmarked) [Compound 151] are 20 µM and 4.65. On to `CC(C)=CC(CC(C)(C)c1ccc(N2CCOCC2)cc1)N1CCC(CCO)CC1` (centres unmarked) [Compound 144], for which, in data set [1] (setting [2]), the concentration giving a half-maximal response (EC50) turned out to be 20 µM. Further, in the data set “log P”, the lipophilicity (log P) amounted to 4.69.

Consider `CC(C)=CC(CC(C)(C)c1ccc(Cl)cc1)N1CCN(S(C)(=O)=O)CC1` (centres unmarked) [Compound 156], for which, in data set [1] (setting [2]), the concentration for a half-maximal effect (EC50) is 0.34 µM. In addition, the log partition coefficient (log P) in “log P” came to 3.83. On the same counts, the results for `CC(C)=CC(CC(C)(C)c1ccc(Cl)cc1)N1CCC(N2CCCC2)CC1` (centres unmarked) [Compound 135] are 20 µM and 5.69. The like results for `CC(C)=CC(CC(C)(C)c1ccc(Cl)cc1)N1CCC(C(F)(F)F)CC1` (centres unmarked) [Compound 123] were, in that order, 0.3 µM and 6.67. The like results for `CC(C)=CC(CC(C)(C)c1ccc(Cl)cc1)N1CCC(CCOC(C)C)CC1` (centres unmarked) [Compound 160] were, in that order, 15 µM and 6.82. Consider `CC(C)=CC(CC(C)(C)c1ccc(N2CCOCC2)cc1)N1CCC(C(F)(F)F)CC1` (centres unmarked) [Compound 143], for which the EC50 in data set [1] (setting [2]) was found to be 20 µM. For the same molecule, the “log P” value in the data set “log P” came out at 5.96.

Regarding `CC(C)=CC(CCc1ccc(F)cc1)N1CCOCC1` (centres unmarked) [Compound 91], the concentration for a half-maximal effect (EC50) in data set [1] (setting [2]) stood at 20 µM. For the same molecule, the log partition coefficient (log P) in the data set “log P” is recorded as 3.99.

For `CC(C)=CC(CC(C)(C)c1ccc(Cl)cc1)N1CCC(C(C)C)CC1` (centres unmarked) [Compound 87], the EC50 in data set [1] (setting [2]) is 20 µM. For the same molecule, the lipophilicity (log P) in the data set “log P” was 7.13. The like results for `CC(C)=CC(CC(C)(C)c1ccc(C(F)(F)F)cc1)N1CCC(N2CCCC2)CC1` (centres unmarked) [Compound 130] were, in that order, 0.3 µM and 5.97. For `CC(C)=CC(CC(C)(C)c1ccc(F)cc1)N1CCC(F)CC1` (centres unmarked) [Compound 134], in data set [1] (setting [2]), the EC50 was found to be 20 µM. Also, the “log P” value in the data set “log P” stood at 5.01.

As for `CC(C)=CC(CC(C)(C)c1ccc(N2CCOCC2)cc1)N1CCC(C2CCOCC2)CC1` (centres unmarked) [Compound 149], the EC50 in data set [1] (setting [2]) turned out to be 20 µM. Moreover, the log partition coefficient (log P) in the data set “log P” is 5.59. The like results for `CC(C)=CC(CC(C)(C)c1ccc(F)cc1)N1CCC(CCOC(C)C)CC1` (centres unmarked) [Compound 159] were, in that order, 10 µM and 6.36. On the same counts, the results for `CC(C)=CC(CC(C)(C)c1ccc(C(F)(F)F)cc1)N1CCC(N2CCOCC2)CC1` (centres unmarked) [Compound 137] are 0.15 µM and 5.34. Turning to `CC(C)=CC(CCc1ccc(F)cc1)N1CCCCC1` (centres unmarked) [Compound 92], the EC50 in data set [1] (setting [2]) came to 20 µM. Moreover, the “log P” value in “log P” is given as 5.06.

With `CC(C)=CC(CC(C)(C)c1ccc(Cl)cc1)N1CCC(Oc2ccccc2)CC1` (centres unmarked) [Compound 132], the half-maximal effective concentration (EC50) in data set [1] (setting [2]) was found to be 20 µM. In “log P”, the “log P” value came out at 6.91. Regarding `COCCOCCC1CCN(C(C=C(C)C)CC(C)(C)c2ccc(Cl)cc2)CC1` (centres unmarked) [Compound 162], in data set [1] (setting [2]), the EC50 turned out to be 15 µM. Also, the “log P” value in the data set “log P” is given as 6.

In the case of `COC[C@H]1CCCN1C(C)CC(C)(C)c1ccc(Cl)cc1` (some centres unmarked) [Compound 253], the 50% effective concentration (EC50) in data set [1] (setting [2]) amounted to 0.25 µM. Also, the log partition coefficient (log P) in “log P” was found to be 4.67. On the same counts, the results for `CC(C)=CC(CC(C)(C)c1ccc(F)cc1)N1CCN(C(=O)c2ccccc2)CC1` (centres unmarked) [Compound 153] are 0.5 µM and 5.73. Take `COc1ccc(C(C)(C)CC(NCC2CCOCC2)c2ccccc2)cc1` (centres unmarked) [Compound 115]: the EC50 in data set [1] (setting [2]) was 20 µM. In addition, the lipophilicity (log P) in the data set “log P” came out at 4.9. As for `COC1CCN(C(C=C(C)C)CC(C)(C)c2ccc(F)cc2)CC1` (centres unmarked) [Compound 145], the EC50 in data set [1] (setting [2]) worked out at 20 µM. Moreover, the “log P” value in the data set “log P” was determined as 4.76. On the same counts, the results for `CCCCC1(OC(=O)NC(C)C)CCN(C(C=C(C)C)CC(C)(C)c2ccc(F)cc2)CC1` (centres unmarked) [Compound 226] are 1.25 µM and 6.91. Consider `CC(CC(C)(C)c1ccc(Cl)cc1)N1CCC(O)C1` (centres unmarked) [Compound 255], for which the half-maximal effective concentration (EC50) in data set [1] (setting [2]) worked out at 15 µM.
